For orientation: inhibition means the drop in the measured response relative to a control, in per cent. As usually defined, the EC50 is the midpoint of the concentration-response curve.

The test system of data set [1] is Pseudoalteromonas sp. D41. Description: Antibiofilm activity against Pseudoalteromonas sp. D41 assessed as inhibition of bacterial adhesion at 200 uM after 15 hrs by fluorescence assay relative to control. Conditions: Pseudoalteromonas sp. D41, 15 h. The data set is classed as functional.
The test system of data set [2] is Paracoccus sp. The data set is described as follows: Antibiofilm activity against Paracoccus sp. 4M6 assessed as inhibition of bacterial adhesion after 15 hrs by fluorescence assay. The data set is classed as functional. To be noted: Paracoccus sp. (in: a-proteobacteria), 4M6, 15 h.
Data set [3] relates to Paracoccus sp. The data set is described as follows: Antibiofilm activity against Paracoccus sp. 4M6 assessed as inhibition of bacterial adhesion at 200 uM after 15 hrs by fluorescence assay. Conditions: Paracoccus sp. (in: a-proteobacteria), 4M6, 15 h; values are per cent of control. The data set is classed as functional.
The test system of data set [4] is Pseudoalteromonas sp. D41. Description: Antibiofilm activity against Pseudoalteromonas sp. D41 assessed as inhibition of bacterial adhesion after 15 hrs by fluorescence assay. The data set is classed as functional. Conditions: Pseudoalteromonas sp. D41, 15 h.
Data set [5] is described as follows: Antibacterial activity against Pseudoalteromonas sp. D41 assessed as growth inhibition at 10 uM up to 6 hrs by viability assay. To be noted: pseudoalteromonas sp. d41, 6 h.
Data set [6] in a line: Antibacterial activity against Paracoccus sp. 4M6 assessed as growth inhibition at 10 uM up to 6 hrs by viability assay.
Data set [7] in a line: Antibacterial activity against Paracoccus sp. 4M6 assessed as growth inhibition at 100 uM up to 6 hrs by viability assay.
Data set [8] in a line: Antibacterial activity against Pseudoalteromonas sp. D41 assessed as growth inhibition at 100 uM up to 6 hrs by viability assay. Conditions: pseudoalteromonas sp. d41, 6 h.
Data set [9] deals with Pseudomonas aeruginosa. Description: Antibiofilm activity against Pseudomonas aeruginosa assessed as modulation of biofilm formation. The data set is classed as functional, organism-based.
In data set [10] the test system is Pseudomonas aeruginosa. The data set is described as follows: Antibiofilm activity against Pseudomonas aeruginosa assessed as dispersion of bacterial biofilm. The data set is classed as functional, organism-based.

Some results are limits rather than exact numbers.

As to `COc1cccc(Cn2nncc2CCc2ccccc2)c1`, the inhibition at 200 µM in [1] is 86.4%. Also, the concentration for a half-maximal effect (EC50) (with Paracoccus sp. [2]; in [4]) was above 200 µM in each case. Further, the response, % of control at 200 µM in the data set on Paracoccus sp. [3] was 65.5%.

Consider `Oc1ccc(Cn2nncc2-c2ccc(O)cc2)cc1`, for which the EC50 (with Paracoccus sp. [2]; in data set [4]) was above 200 µM each time.

Turning to `COc1ccc(Cn2nncc2-c2ccc(OC)cc2)cc1`, the EC50 (in the data set with Paracoccus sp. [2]; in data set [4]) was above 200 µM each time.

`COc1cccc(Cn2nncc2-c2ccccc2)c1`: in data set [1], the inhibition at 200 µM stood at 50.5%. Further, the EC50 (in the data set with Paracoccus sp. [2]; in data set [4]) was above 200 µM throughout. For the same compound, in the data set on Paracoccus sp. [3], the response, % of control at 200 µM was determined as 142%.

Regarding `COc1ccc(-c2cnnn2Cc2cccc(OC)c2)cc1`, the EC50 in the data set with Paracoccus sp. [2] was above 200 µM; in [4] it was 172 µM.

For the compound `COc1ccc(Cn2nncc2CCc2ccccc2)cc1`, the inhibition at 200 µM in data set [1] was determined as 78.5%. The EC50 (with Paracoccus sp. [2]; in data set [4]) was above 200 µM each time. The response, % of control at 200 µM in the data set on Paracoccus sp. [3] was 97.8%.

For `CCn1cc(C(=O)O)c(=O)c2cc(F)c(N3CCNCC3)cc21` [NORFLOXACIN], the “growth inhibition (GI)” value in [5] and in data set [6] was “Toxic” each time.

As to `Oc1ccc(-c2cnnn2Cc2cccc(O)c2)cc1`, the EC50 (in the data set on Paracoccus sp. [2]; in [4]) was above 200 µM each time.

`Oc1ccc(Cn2nncc2-c2cc(O)cc(O)c2)cc1`: the EC50 (in the data set with Paracoccus sp. [2]; in data set [4]) was above 200 µM each time.

With `Oc1ccc(-c2cn(Cc3cccc(O)c3)nn2)cc1`, the results for the EC50 (in the data set on Paracoccus sp. [2]; in data set [4]) were 41.2 µM and 129 µM, respectively. In addition, the “growth inhibition (GI)” value in data set [7] is “Non-toxic”.

Consider `Oc1cccc(Cn2nncc2-c2cc(O)cc(O)c2)c1`, for which the EC50 (in the data set with Paracoccus sp. [2]; in [4]) was above 200 µM each time.

On to `COc1ccc(-c2cn(Cc3cccc(OC)c3)nn2)cc1`, for which the EC50 (in the data set with Paracoccus sp. [2]; in data set [4]) was above 200 µM throughout.

Take `COc1ccc(Cn2nncc2-c2cc(OC)cc(OC)c2)cc1`: the results for the EC50 (with Paracoccus sp. [2]; in [4]) were 90.3 µM and 37.2 µM, respectively. For the same compound, the “growth inhibition (GI)” value in [7] and in data set [8] was “Non-toxic” in each case.

Turning to `COc1ccc(Cn2nncc2Cc2ccccc2)cc1`, in [1], the inhibition at 200 µM is 55.5%. Moreover, the results for the EC50 (in the data set with Paracoccus sp. [2]; in [4]) were 199 µM and above 200 µM, respectively.

On to `COc1ccc(Cn2cc(-c3cc(OC)cc(OC)c3)nn2)cc1`, for which the EC50 in the data set with Paracoccus sp. [2] was found to be 199 µM; in data set [4], 62 µM. The “growth inhibition (GI)” value in data set [8] is reported as “Non-toxic”.

`COc1ccc(Cn2cc(-c3ccc(OC)cc3)nn2)cc1`: the EC50 (with Paracoccus sp. [2]; in [4]) was above 200 µM throughout.

Turning to `COc1ccc(Cc2[nH]c(=N)n(C)c2Cc2ccc(O)cc2)cc1` [NAAMINE A], the EC50 in the data set with Pseudomonas aeruginosa [9] and with Pseudomonas aeruginosa [10] was 436 µM each time.

With `COc1cccc(Cn2nncc2Cc2ccccc2)c1`, the inhibition at 200 µM in data set [1] worked out at 58.5%. The EC50 (with Paracoccus sp. [2]; in [4]) was above 200 µM each time. For the same compound, the response, % of control at 200 µM with Paracoccus sp. [3] was 149%.

Regarding `COc1ccc(Cn2nncc2-c2ccccc2)cc1`, the inhibition at 200 µM in data set [1] came out at 70.9%. Moreover, the EC50 (in the data set on Paracoccus sp. [2]; in [4]) was above 200 µM throughout. The response, % of control at 200 µM in the data set on Paracoccus sp. [3] amounted to 127%.

As for `Oc1cccc(Cn2cc(-c3cc(O)cc(O)c3)nn2)c1`, the EC50 (in the data set on Paracoccus sp. [2]; in data set [4]) was above 200 µM in each case.

On to `Oc1ccc(Cn2cc(-c3ccc(O)cc3)nn2)cc1`, for which the values for the half-maximal effective concentration (EC50) (in the data set on Paracoccus sp. [2]; in data set [4]) were 131 µM and above 200 µM, respectively.

As to `COc1cccc(Cn2cc(-c3cc(OC)cc(OC)c3)nn2)c1`, the EC50 in the data set with Paracoccus sp. [2] was above 200 µM; in [4], 34.8 µM. Moreover, the “growth inhibition (GI)” value in data set [8] was “Non-toxic”.

Consider `Oc1ccc(Cn2cc(-c3cc(O)cc(O)c3)nn2)cc1`, for which the EC50 in the data set with Paracoccus sp. [2] was 181 µM; in data set [4], above 200 µM.

Consider `COc1cccc(Cn2nncc2-c2cc(OC)cc(OC)c2)c1`, for which the EC50 with Paracoccus sp. [2] was above 200 µM; in data set [4] it was 48.6 µM. In addition, in [8], the “growth inhibition (GI)” value was “Non-toxic”.
